For data set [1], the target named is Calcitonin gene-related peptide type 1 receptor (Homo sapiens, UniProt O60894+Q16602). Description: Displacement of [125I]hCGRP from human cloned CGRP receptor expressed in HEK293 cells. In kind it is cell-based. (In a radioligand displacement assay an active substance lowers the binding of a labelled ligand.)
For data set [2], the target named is Calcitonin gene-related peptide type 1 receptor (Homo sapiens, UniProt Q16602). Nature of the data set: Inhibition of CGRP-induced cAMP production in E10 cells. In kind it is functional, cell-based, Mus musculus. In general terms: Changes in cAMP serve as a functional read-out for many G protein-coupled receptors.
Data set [3] in a line: Bioavailability in rat at 10 mg/kg, po. In kind it is ADME, organism-based. The note with it: in vivo.
Data set [4] in a line: Half life in rat at 2 mpk, iv. In kind it is ADME, organism-based. The note with it: in vivo, 2 mg/kg.
The nature of data set [5]: Clearance in rat at 2 mpk, iv. The following applies: in vivo, 2 mg/kg.
The next data set has as its system Rattus norvegicus. Description: Volume of distribution in rat at 2 mpk, iv. The note with it: in vivo, 2 mg/kg.
A short description of data set [6]: Solubility at pH 7.4. The data set is classed as physicochemical. The note with it: buffer.
The nature of data set [7]: Bioavailability in dog at 2 mg/kg, po. The data set is classed as ADME, organism-based, Canis lupus familiaris. The following applies: in vivo.
The nature of data set [8]: Bioavailability in rhesus at 2 mg/kg, po. In kind it is ADME, organism-based, Macaca mulatta. The following applies: rhesus monkey, in vivo.
Data set [9] can be described thus: Half life in dog at 0.5 mg/kg, iv. In kind it is ADME, organism-based, Canis lupus familiaris. Details: dose 0.5 mg/kg, route intravenous. The following applies: in vivo.
The nature of data set [10]: Half life in rhesus at 0.5 mpk, iv. The data set is classed as ADME, organism-based, Macaca mulatta. The following applies: rhesus monkey, in vivo, 0.5 mg/kg.
The target in another data set is Cytochrome P450 3A4 (Homo sapiens, UniProt P08684). Description: Inhibition of CYP3A4. The data set is classed as ADME.
The next data set has as its target Cytochrome P450 2C9 (Homo sapiens, UniProt P11712). Description: Inhibition of CYP2C9. The data set is classed as ADME.
Another data set concerns the target Cytochrome P450 2D6 (Homo sapiens, UniProt P10635). Nature of the data set: Inhibition of CYP2D6. In kind it is ADME.
The nature of data set [11]: Clearance in dog at 0.5 mpk, iv. The note with it: in vivo, 0.5 mg/kg.
Data set [12] in a line: Clearance in rhesus at 0.5 mpk, iv. The note with it: Macaca mulatta, rhesus monkey, in vivo, 0.5 mg/kg.
For a further data set, the system named is Canis familiaris. Nature of the data set: Volume of distribution in dog at 0.5 mpk, iv. The note with it: in vivo, 0.5 mg/kg.
For another data set, the system named is Rhesus monkey. Description: Volume of distribution in rhesus at 0.5 mpk, iv. The following applies: Macaca mulatta, in vivo, 0.5 mg/kg.

19 compounds from ChEMBL document CHEMBL1146172, “Identification of novel, orally bioavailable spirohydantoin CGRP receptor antagonists” (Bioorg Med Chem Lett, 2006) can be followed below.

Calcitonin gene-related peptide type 1 receptor (Homo sapiens, UniProt O60894+Q16602), sequence (Q16602 whole entry, one chain of several): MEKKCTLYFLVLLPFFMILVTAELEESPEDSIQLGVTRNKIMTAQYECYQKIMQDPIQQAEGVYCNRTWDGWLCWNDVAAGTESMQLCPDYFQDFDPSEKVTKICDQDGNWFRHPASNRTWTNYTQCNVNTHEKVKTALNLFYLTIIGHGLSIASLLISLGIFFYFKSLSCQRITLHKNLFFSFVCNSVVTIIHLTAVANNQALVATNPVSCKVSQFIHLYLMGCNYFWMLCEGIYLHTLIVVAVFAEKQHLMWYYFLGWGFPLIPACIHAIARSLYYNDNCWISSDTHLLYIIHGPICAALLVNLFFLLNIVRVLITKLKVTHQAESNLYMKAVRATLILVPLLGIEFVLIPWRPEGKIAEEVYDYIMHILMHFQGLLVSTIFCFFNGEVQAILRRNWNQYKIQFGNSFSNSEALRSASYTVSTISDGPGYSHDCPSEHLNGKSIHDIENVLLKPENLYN
Calcitonin gene-related peptide type 1 receptor (Homo sapiens, UniProt Q16602), sequence (Q16602 whole entry): as the sequence (Q16602 whole entry, one chain of several) above
Cytochrome P450 2C9, sequence (P11712 whole entry): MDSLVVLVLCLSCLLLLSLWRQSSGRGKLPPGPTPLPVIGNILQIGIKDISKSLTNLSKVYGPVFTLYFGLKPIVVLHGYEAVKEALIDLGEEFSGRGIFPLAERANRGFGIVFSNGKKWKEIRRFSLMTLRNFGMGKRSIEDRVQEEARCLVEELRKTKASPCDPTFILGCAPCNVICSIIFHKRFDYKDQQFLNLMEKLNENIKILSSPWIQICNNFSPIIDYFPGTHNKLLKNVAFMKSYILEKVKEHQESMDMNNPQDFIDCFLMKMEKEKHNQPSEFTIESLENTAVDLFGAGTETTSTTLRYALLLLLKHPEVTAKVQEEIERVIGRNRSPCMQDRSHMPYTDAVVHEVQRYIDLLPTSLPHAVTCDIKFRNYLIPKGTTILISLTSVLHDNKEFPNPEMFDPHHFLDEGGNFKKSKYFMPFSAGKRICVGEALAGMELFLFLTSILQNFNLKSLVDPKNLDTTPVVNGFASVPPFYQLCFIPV
Cytochrome P450 2D6, sequence (P10635 whole entry): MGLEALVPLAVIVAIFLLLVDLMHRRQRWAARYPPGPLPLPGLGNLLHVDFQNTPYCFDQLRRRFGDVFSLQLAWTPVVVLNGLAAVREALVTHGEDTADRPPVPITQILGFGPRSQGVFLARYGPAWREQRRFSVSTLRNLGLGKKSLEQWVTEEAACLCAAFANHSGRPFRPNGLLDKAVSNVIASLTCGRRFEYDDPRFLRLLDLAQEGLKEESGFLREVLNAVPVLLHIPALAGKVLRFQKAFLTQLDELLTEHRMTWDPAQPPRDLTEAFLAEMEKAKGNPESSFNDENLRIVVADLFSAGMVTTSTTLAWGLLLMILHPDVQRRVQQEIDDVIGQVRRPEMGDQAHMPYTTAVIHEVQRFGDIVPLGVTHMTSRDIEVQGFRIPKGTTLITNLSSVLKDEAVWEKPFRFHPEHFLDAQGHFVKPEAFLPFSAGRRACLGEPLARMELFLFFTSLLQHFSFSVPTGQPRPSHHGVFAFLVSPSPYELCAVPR
Cytochrome P450 3A4, sequence (P08684 whole entry): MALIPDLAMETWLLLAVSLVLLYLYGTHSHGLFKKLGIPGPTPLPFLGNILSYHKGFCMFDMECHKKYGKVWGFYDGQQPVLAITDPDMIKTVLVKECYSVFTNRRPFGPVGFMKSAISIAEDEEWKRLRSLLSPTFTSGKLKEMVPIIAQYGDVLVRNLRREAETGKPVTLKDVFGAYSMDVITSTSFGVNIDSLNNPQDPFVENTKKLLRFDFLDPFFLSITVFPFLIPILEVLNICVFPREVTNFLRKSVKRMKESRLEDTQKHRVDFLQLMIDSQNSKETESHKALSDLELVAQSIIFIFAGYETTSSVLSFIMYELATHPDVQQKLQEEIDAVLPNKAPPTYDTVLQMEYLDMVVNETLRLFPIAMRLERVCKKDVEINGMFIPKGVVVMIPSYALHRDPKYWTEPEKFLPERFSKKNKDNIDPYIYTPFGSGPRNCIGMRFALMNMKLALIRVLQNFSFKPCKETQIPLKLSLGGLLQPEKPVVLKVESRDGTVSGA

In general, Ki refers to a dissociation constant, usually derived from enzyme kinetics or from competition with a known ligand. A word on the IC50: it is the concentration that inhibits the measured activity by half. With `O=C(Cn1c(=O)oc2ccccc21)Nc1ccc2c(c1)CCC1(C2)NC(=O)NC1=O` (centres undefined), the inhibition constant (Ki) in data set [1] was determined as 607 nM. In data set [2], the IC50 worked out at 3300 nM.

The bioavailability is the share of a dose that reaches the circulation, judged against a reference dose that is usually intravenous. In general, half-life refers to the time in which the quantity being followed falls by half. A word on the clearance: it is the rate of elimination divided by the concentration. The term Vdss denotes the apparent volume that relates the amount in the body to the concentration in plasma or blood. Regarding `COc1cccc(-n2c(=O)n(CC(=O)Nc3ccc4c(c3)C[C@]3(C4)C(=O)NC(=O)N3C)c3ccccc32)n1`, the bioavailability in data set [3] turned out to be 13%. Further, the inhibition constant Ki in data set [1] was determined as 15 nM. The IC50 in data set [2] worked out at 54 nM. The compound further showed a half-life in data set [4] of 1.2 h. The clearance in data set [5] came to 11 mL/min/kg. Also, in the data set with Rattus norvegicus, the volume of distribution (Vdss) is 0.84 L/kg.

In data set [3], `CN1C(=O)NC(=O)[C@]12Cc1ccc(NC(=O)Cn3c(=O)n(-c4ncccn4)c4ccccc43)cc1C2` displayed a bioavailability of 2%. Moreover, in data set [1], the inhibitory constant (Ki) worked out at 25 nM. For the same compound, in [2], the IC50 was 110 nM. In data set [4], this compound showed a half-life of 1.1 h. The same compound registered a clearance in data set [5] of 23 mL/min/kg. Further, the Vdss with Rattus norvegicus stood at 0.5 L/kg.

The compound `CN1C(=O)NC(=O)[C@]12Cc1ccc(NC(=O)Cn3c(=O)n(C4CCOC4)c4ccccc43)cc1C2` (some centres undefined) registered a bioavailability in data set [3] of 5%. The inhibitory constant (Ki) in [1] was determined as 20 nM. For the same compound, in [2], the half-inhibitory concentration (IC50) came out at 61 nM. Further, the half-life in [4] is 0.9 h. Besides, the clearance in data set [5] is 9 mL/min/kg. The Vdss in the data set on Rattus norvegicus stood at 0.43 L/kg.

The term solubility denotes how much of the substance goes into solution per volume. `CN1C(=O)NC(=O)[C@]12Cc1ccc(NC(=O)Cn3c(=O)n(C4CCS(=O)(=O)C4)c4ccccc43)cc1C2` (some centres undefined) had a bioavailability in data set [3] of 0%. For the same compound, the inhibitory constant (Ki) in [1] was 17 nM. In data set [2], the IC50 was 64 nM. The compound also showed a half-life in data set [4] of 1.1 h. Moreover, in data set [6], the solubility is > 100 µg/mL. In [5], this compound registered a clearance of 31 mL/min/kg. In addition, in the data set with Rattus norvegicus, the volume of distribution (Vdss) is 0.8 L/kg.

On to `CN1C(=O)NC(=O)[C@@]12Cc1ccc(NC(=O)Cn3c(=O)oc4ccccc43)cc1C2`, for which the inhibition constant (Ki) in [1] is 1050 nM.

In the case of `CN1C(=O)NC(=O)[C@]12Cc1ccc(NC(=O)Cn3c(=O)oc4ccccc43)cc1C2`, the Ki in data set [1] stood at 48 nM. Also, in data set [2], the IC50 came out at 350 nM.

`CN1C(=O)NC(=O)[C@]12Cc1ccc(NC(=O)Cn3c(=O)n(-c4cc(F)cc(F)c4)c4ccccc43)cc1C2`: the bioavailability in [3] is 24%. Further, in data set [1], the inhibitory constant (Ki) stood at 29 nM. The IC50 in data set [2] amounted to 180 nM. In data set [4], this compound gave a half-life of 6.5 h. Besides, the clearance in data set [5] was 3.1 mL/min/kg. The compound also displayed a Vdss with Rattus norvegicus of 1.4 L/kg.

For `CN1C(=O)NC(=O)C12Cc1ccc(NC(=O)Cn3c(=O)oc4ccccc43)cc1C2` (centres undefined), the inhibitory constant (Ki) in data set [1] was determined as 103 nM. The IC50 in data set [2] worked out at 1400 nM.

In data set [3], `CN1C(=O)NC(=O)[C@]12Cc1ccc(NC(=O)Cn3c(=O)n(-c4cncnc4)c4ccccc43)cc1C2` showed a bioavailability of 0%. Besides, in [1], the Ki amounted to 9.5 nM. For the same compound, in data set [2], the IC50 worked out at 50 nM. The compound further had a half-life in data set [4] of 0.5 h. For the same compound, the solubility in data set [6] is > 100 µg/mL. For the same compound, the clearance in data set [5] was 46 mL/min/kg. Besides, the Vdss with Rattus norvegicus stood at 0.95 L/kg.

With `O=C(Cn1c(=O)n(-c2ccccc2)c2ccccc21)Nc1ccc2c(c1)CC1(C2)NC(=O)NC1=O` (centres undefined), the Ki in [1] was 87 nM. In addition, the IC50 in data set [2] is 430 nM.

Compound `CN1C(=O)NC(=O)[C@]12Cc1ccc(NC(=O)Cn3c(=O)n(-c4nccs4)c4ccccc43)cc1C2` had a bioavailability in data set [3] of 20%. In [1], the Ki is 8.7 nM. In data set [2], the IC50 is 24 nM. The compound also showed a half-life in data set [4] of 2 h. In addition, the solubility in [6] was < 1 µg/mL. This compound also gave a clearance in [5] of 3.7 mL/min/kg. Further, in the data set with Rattus norvegicus, the Vdss came to 0.54 L/kg.

Take `Cn1c(=O)n(CC(=O)Nc2ccc3c(c2)CC2(C3)NC(=O)NC2=O)c2ccccc21` (centres undefined): the Ki in [1] came out at 78 nM. The half-maximal inhibitory concentration (IC50) in data set [2] worked out at 530 nM.

As to `CN1C(=O)NC(=O)[C@]12Cc1ccc(NC(=O)Cn3c(=O)n(-c4ccccn4)c4ccccc43)cc1C2`, the figures for the bioavailability in [3], in [7] and in data set [8] were 36%, 83% and 29%, respectively. Further, the half-life in data set [4] was 1.6 h; in [9] it was 4.8 h; in [10], 9.6 h. The 50% inhibitory concentration (IC50) against Cytochrome P450 3A4, at Cytochrome P450 2C9 and on Cytochrome P450 2D6 was > 10000 nM in each case. The solubility in [6] is < 1 µg/mL. Besides, the clearance in data set [5] came out at 3.4 mL/min/kg; in data set [11], 1.7 mL/min/kg; in data set [12], 0.85 mL/min/kg. The distribution volume (Vdss) amounted to 0.47 L/kg in the data set on Rattus norvegicus, 0.69 L/kg in the data set on Canis familiaris and 0.31 L/kg in the data set with Rhesus monkey.

For `CN1C(=O)NC(=O)[C@]12Cc1ccc(NC(=O)Cn3c(=O)n(-c4cnsc4)c4ccccc43)cc1C2`, the bioavailability in data set [3] is 1%. Also, in data set [1], the inhibition constant Ki came out at 6.8 nM. The IC50 in data set [2] worked out at 39 nM. In data set [4], this compound gave a half-life of 1 h. Also, the clearance in data set [5] was 60 mL/min/kg. The distribution volume (Vdss) with Rattus norvegicus came out at 2 L/kg.

In turn, `CN1C(=O)NC(=O)[C@]12Cc1ccc(NC(=O)Cn3c(=O)n(-c4nccc(C(F)(F)F)n4)c4ccccc43)cc1C2` displayed a bioavailability in data set [3] of 0%. For the same compound, in data set [1], the Ki turned out to be 10 nM. In addition, the IC50 in [2] turned out to be 50 nM. In data set [4], the half-life is 2.8 h. This compound had a clearance in data set [5] of 7.5 mL/min/kg. Further, the distribution volume (Vdss) with Rattus norvegicus came out at 1.8 L/kg.

As to `O=C(Cn1c(=O)oc2ccccc21)Nc1ccc2c(c1)CC1(C2)NC(=O)NC1=O` (centres undefined), the Ki in data set [1] came to 309 nM. The IC50 in data set [2] amounted to 2900 nM.

Regarding `O=C(Cn1c(=O)[nH]c2ccccc21)Nc1ccc2c(c1)CC1(C2)NC(=O)NC1=O` (centres undefined), the inhibition constant (Ki) in [1] was found to be 280 nM. For the same compound, in data set [2], the half-maximal inhibitory concentration (IC50) is 690 nM.

Consider `CN1C(=O)NC(=O)[C@]12Cc1ccc(NC(=O)Cn3c(=O)n(-c4cnccn4)c4ccccc43)cc1C2`, for which the bioavailability in data set [3] came out at 1%. Moreover, the inhibition constant Ki in data set [1] turned out to be 12 nM. The IC50 in data set [2] was 64 nM. Moreover, the half-life in [4] was 1.1 h. This compound also returned a clearance in [5] of 11 mL/min/kg. Moreover, the distribution volume (Vdss) in the data set on Rattus norvegicus stood at 0.64 L/kg.
